The source of these data is ChEMBL document CHEMBL1201862, “PubChem BioAssay data set” (2004).

Molecules are shown by their SMILES.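 1) Cells in 96-well plates. 2) Compound, 48 h, 5 concentrations. 3) Linear interpolation between surrounding doses. 4) Unreached endpoint = highest concentration. GI50 is the concentration that inhibits growth by half.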 The source made the active and inactive calls. Cut-off read from the data, not from the text of the source: active = GI50 up to about 1.1 µM and inactive = higher.

What all share (assay): growth of human tumour cells (NCI), 48 h
Experiment [1] relates to SN12C.
For experiment [2], the system named is T47D.
Experiment [3] deals with U-251.
Experiment [4] concerns Malme-3M.
In experiment [5] the test system is HCT-116.
For experiment [6], the system named is NCI/ADR-RES.
Experiment [7] relates to 786-0.
Experiment [8] concerns SR.
In experiment [9] the test system is OVCAR-8.
Experiment [10] relates to SK-OV-3.
Experiment [11] has as its system IGROV-1.
Experiment [12] deals with HT-29.
For experiment [13], the system named is NCI-H460.
Experiment [14] deals with CCRF-CEM.
Experiment [15] relates to K562.
The test system of experiment [16] is BT-549.
For experiment [17], the system named is OVCAR-3.
The subject of experiment [18] is ACHN.
In experiment [19] the test system is OVCAR-5.
Experiment [20] has as its system SNB-75.

As for `O=S(=O)(O)c1ccc(NN(c2c(O)ccc3ccccc23)S(=O)(=O)O)cc1`, the GI50 in [1], in [2], in experiment [3], in experiment [4], in [5] and in experiment [6] was > 100 µM (inactive) throughout. For the same compound, the GI50 in experiment [7], in experiment [8], in [9], in [10], in experiment [11] and in [12] was > 100 µM (inactive) each time. The GI50 in experiment [13], in [14], in experiment [15], in [16], in experiment [17] and in [18] was > 100 µM (inactive) throughout. For the same compound, in experiment [19], the GI50 was > 100 µM (inactive).
With `N#Cc1c(O)nc2nn3c4ccc5ccccc5c4nnc3c2c1-c1ccc(Cl)cc1`, the GI50 in experiment [1] is 3.34 µM (inactive); in [2], 0.313 µM (active); in experiment [3], 2.12 µM (inactive); in experiment [4] it was 1.93 µM (inactive); in experiment [5] it was 2.4 µM (inactive); in experiment [6] it was 4.55 µM (inactive). The GI50 is 2.59 µM (inactive) in experiment [7]; 0.675 µM (active) in experiment [8]; 2.27 µM (inactive) in experiment [9]; 3.3 µM (inactive) in [10]; 1.2 µM (inactive) in experiment [11]; 2.94 µM (inactive) in [12]. Further, the GI50 in experiment [13] is 2.24 µM (inactive); in experiment [14], 1.56 µM (inactive); in [15], 4.16 µM (inactive); in [16], 0.174 µM (active); in experiment [17] it was 1.69 µM (inactive); in [18], 2.49 µM (inactive). For the same compound, the GI50 in experiment [19] is 6.24 µM (inactive).
For `O=c1oc2ccc3ccccc3c2cc1-c1nnc(Nc2ccccc2)s1`, the GI50 in experiment [1] is 50.8 µM (inactive); in experiment [2], 77.1 µM (inactive); in experiment [3], 7.59 µM (inactive); in experiment [5] it was 22.5 µM (inactive); in experiment [6], 52.5 µM (inactive); in experiment [7] it was 16 µM (inactive). Besides, the GI50 in [8] is 19.3 µM (inactive); in [12] it was 41 µM (inactive); in experiment [13], 18.7 µM (inactive); in experiment [15], 51.5 µM (inactive); in [16] it was 33.5 µM (inactive); in experiment [17] it was 17.4 µM (inactive). The figures for the GI50 in experiment [18] and in experiment [19] were 13.2 µM (inactive) and > 100 µM (inactive), respectively.
Regarding `CCOc1ccc2c(c1)/C(=C(\C(Cl)=C(Cl)Cl)[N+](=O)[O-])N2`, the GI50 in experiment [1] was > 100 µM (inactive); in experiment [2], 48.9 µM (inactive); in experiment [3] it was > 100 µM (inactive); in experiment [4], > 100 µM (inactive); in [5], > 100 µM (inactive); in experiment [6], > 100 µM (inactive). For the same compound, the GI50 in experiment [7] is > 100 µM (inactive); in experiment [9] it was > 100 µM (inactive); in [10], > 100 µM (inactive); in experiment [12], > 100 µM (inactive); in experiment [13], > 100 µM (inactive); in experiment [14], 47.9 µM (inactive). The GI50 was 51.6 µM (inactive) in experiment [15]; 28.2 µM (inactive) in [16]; > 100 µM (inactive) in experiment [17]; > 100 µM (inactive) in experiment [20]; > 100 µM (inactive) in experiment [18]; > 100 µM (inactive) in experiment [19].
Consider `CC(=O)O[C@H](C[C@@H](C)[C@H]1C(=O)[C@H](O)[C@@]2(C)C3CC[C@H]4C(C)(C)[C@@H](OC5OCC(O)C(O)C5O)CC[C@@]45C[C@@]35CC[C@]12C)[C@@H]1OC1(C)C` (stereo not given in full), for which the GI50 in experiment [1] was 18.9 µM (inactive); in experiment [2], 17.4 µM (inactive); in [3], 16.3 µM (inactive); in experiment [4], 17.2 µM (inactive); in experiment [5], 18.1 µM (inactive); in experiment [6], 47.3 µM (inactive). Also, the GI50 is 16.6 µM (inactive) in [7]; 20.2 µM (inactive) in experiment [9]; 12.7 µM (inactive) in [10]; 16.2 µM (inactive) in [11]; 29.4 µM (inactive) in [12]; 16.9 µM (inactive) in [13]. Further, the GI50 is 1.93 µM (inactive) in experiment [14]; 0.14 µM (active) in experiment [15]; 21.9 µM (inactive) in experiment [16]; 2.29 µM (inactive) in experiment [17]; 12.1 µM (inactive) in experiment [20]; 14 µM (inactive) in experiment [18]. In experiment [19], the GI50 is 16.9 µM (inactive).
Consider `CN1CCN(Cc2ccc(C(=S)Nc3ccccc3)s2)CC1`, for which the GI50 in experiment [2] was 59.2 µM (inactive); in [3] it was 64.7 µM (inactive); in experiment [4], 89.5 µM (inactive); in [5], 42.5 µM (inactive); in experiment [6] it was 32.9 µM (inactive); in experiment [7], 31.9 µM (inactive). Further, the GI50 in experiment [8] is 21.2 µM (inactive); in experiment [9] it was 14.5 µM (inactive); in experiment [10] it was 86.1 µM (inactive); in experiment [11], 10.4 µM (inactive); in [12], 19.6 µM (inactive); in experiment [13], 36.4 µM (inactive). In addition, the GI50 is 24 µM (inactive) in experiment [14]; 25.9 µM (inactive) in [15]; 15.9 µM (inactive) in [16]; > 100 µM (inactive) in experiment [17]; 92 µM (inactive) in [18]; 45.8 µM (inactive) in [19].
As for `CCn1nc2c3c(ncn3C(C)(C)O2)c1=O`, the GI50 in experiment [1], in [2], in experiment [3], in experiment [4], in experiment [5] and in experiment [6] was > 100 µM (inactive) each time. Further, the GI50 in experiment [7], in [8], in experiment [10], in experiment [11], in experiment [12] and in experiment [13] was > 100 µM (inactive) throughout. The GI50 in [14], in [15], in experiment [16], in [18] and in experiment [19] was > 100 µM (inactive) throughout.
As to `COc1cc2c(cc1O)-c1c(cnn1-c1ccc([N+](=O)[O-])cc1)CCC2`, the GI50 was 2.86 µM (inactive) in [1]; 19.8 µM (inactive) in experiment [2]; 11.7 µM (inactive) in [3]; 5.82 µM (inactive) in [4]; 18.3 µM (inactive) in [5]; 14.4 µM (inactive) in [6]. The GI50 in experiment [7] is 12.9 µM (inactive); in experiment [9], 19.7 µM (inactive); in experiment [10], 44.3 µM (inactive); in experiment [11], 4.78 µM (inactive); in experiment [12], 16.4 µM (inactive); in experiment [13] it was 10.3 µM (inactive). The GI50 is 2.94 µM (inactive) in experiment [14]; 32.9 µM (inactive) in [15]; 21.6 µM (inactive) in experiment [16]; 16.7 µM (inactive) in experiment [17]; 22.9 µM (inactive) in experiment [20]; 1.82 µM (inactive) in experiment [18]. In addition, the GI50 in [19] was 22.4 µM (inactive).
For the compound `CC1=NN(c2nc(N)nc(CS(C)(=O)=O)n2)C(C)(C)C1`, the GI50 in experiment [2], in experiment [3], in experiment [5], in [6], in experiment [7] and in experiment [8] was > 100 µM (inactive) in each case. Moreover, the GI50 in experiment [9], in [10], in experiment [11], in experiment [12], in experiment [13] and in experiment [14] was > 100 µM (inactive) in each case. Further, the GI50 in experiment [15], in experiment [16], in experiment [20] and in experiment [18] was > 100 µM (inactive) each time.
For the compound `O=Cc1c2n(c3ccccc13)N[C@@](Cc1ccc(O)cc1)(C(=O)O)C2`, the GI50 is 82.4 µM (inactive) in experiment [2]; > 100 µM (inactive) in experiment [3]; 60.3 µM (inactive) in [4]; 38.3 µM (inactive) in experiment [5]; 35.9 µM (inactive) in experiment [6]; 89.1 µM (inactive) in experiment [7]. The GI50 was 38.1 µM (inactive) in experiment [8]; > 100 µM (inactive) in [9]; 77.3 µM (inactive) in experiment [10]; > 100 µM (inactive) in experiment [11]; > 100 µM (inactive) in experiment [12]; 34.5 µM (inactive) in [14]. The GI50 was 97.3 µM (inactive) in [15]; > 100 µM (inactive) in [16]; 19.5 µM (inactive) in experiment [17]; 62.7 µM (inactive) in [18]; > 100 µM (inactive) in experiment [19].
Turning to `Cn1c2ccccc2c(=NNc2cccc(C(=O)O)c2)c2ccccc21`, the GI50 was 6.55 µM (inactive) in [1]; 5.79 µM (inactive) in experiment [2]; 4.69 µM (inactive) in experiment [3]; 20.1 µM (inactive) in experiment [4]; 4.89 µM (inactive) in experiment [5]; 24.3 µM (inactive) in experiment [6]. For the same compound, the GI50 in experiment [7] was 9.79 µM (inactive); in [9] it was 5.77 µM (inactive); in experiment [10], 14.8 µM (inactive); in experiment [11], 17.8 µM (inactive); in experiment [12], 3.1 µM (inactive); in [13] it was 4.86 µM (inactive). Further, the GI50 in experiment [14] was 6.41 µM (inactive); in experiment [15] it was 3.37 µM (inactive); in [16], 7.59 µM (inactive); in experiment [17], 3.57 µM (inactive); in experiment [20], 23.9 µM (inactive); in experiment [18] it was 5.85 µM (inactive). Besides, the GI50 in experiment [19] is 14.4 µM (inactive).
